Paper PMC11509018, “Evaluation of the Role of Tanshinone I in an In Vitro System of Charcot-Marie-Tooth Disease Type 2N” (International Journal of Molecular Sciences, 2024)
Positions count from the first letter of the chain named.

What was measured:
AlaRS^G102R = target: T1, AlaRS^G102R (Homo sapiens, UniProt P49588, G102R); test: Proteolytic digestion assay (trypsin, SDS-PAGE); conditions: three hours
T1 construct: made in house; host or cells: E. coli BL21 (DE3), pET-21a
T1 sequence (P49588 1-968 G102R): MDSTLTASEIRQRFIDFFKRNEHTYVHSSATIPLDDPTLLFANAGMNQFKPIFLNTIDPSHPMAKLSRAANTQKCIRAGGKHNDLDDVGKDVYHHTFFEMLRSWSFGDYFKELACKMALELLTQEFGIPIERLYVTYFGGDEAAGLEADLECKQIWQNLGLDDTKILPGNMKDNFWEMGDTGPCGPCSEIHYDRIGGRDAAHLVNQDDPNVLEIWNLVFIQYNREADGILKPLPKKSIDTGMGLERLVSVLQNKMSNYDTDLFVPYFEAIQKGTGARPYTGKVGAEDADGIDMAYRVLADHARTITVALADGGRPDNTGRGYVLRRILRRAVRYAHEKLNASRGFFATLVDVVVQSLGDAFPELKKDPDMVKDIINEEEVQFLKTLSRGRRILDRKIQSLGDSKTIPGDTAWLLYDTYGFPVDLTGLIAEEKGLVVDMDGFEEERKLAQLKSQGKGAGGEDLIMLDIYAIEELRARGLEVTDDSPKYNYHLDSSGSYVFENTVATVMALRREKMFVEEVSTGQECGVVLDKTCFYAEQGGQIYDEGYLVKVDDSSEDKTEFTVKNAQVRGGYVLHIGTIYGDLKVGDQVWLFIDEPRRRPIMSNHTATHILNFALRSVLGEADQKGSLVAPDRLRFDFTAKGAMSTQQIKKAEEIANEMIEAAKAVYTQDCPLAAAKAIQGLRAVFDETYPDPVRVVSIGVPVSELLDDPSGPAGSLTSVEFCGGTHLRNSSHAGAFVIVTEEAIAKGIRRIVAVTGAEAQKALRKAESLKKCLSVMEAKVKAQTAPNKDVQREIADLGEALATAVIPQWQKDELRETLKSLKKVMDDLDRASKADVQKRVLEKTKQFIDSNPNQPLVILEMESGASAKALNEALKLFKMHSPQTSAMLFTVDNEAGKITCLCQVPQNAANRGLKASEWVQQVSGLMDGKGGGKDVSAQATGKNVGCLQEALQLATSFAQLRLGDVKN
Excerpt: (§1) Furthermore, we examined the interaction of Tanshinone I with additional AlaRS CMT mutants capable of binding to Nrp1 and causing conformational changes by BLI and proteolysis assays on additional related mutants.
(§2) Figure 5 BLI and proteolytic digestion assay of AlaRS mutants with Tanshinone I. Binding sensorgrams for the interaction of Tanshinone I with immobilized AlaRS^R329H (A), AlaRS^G102R (C), AlaRS^R326W (E), and AlaRS^E337K (G). Each sensorgram contains five curves generated from five different concentrations. The KD values are presented as the mean ± SD and experiments were performed in triplicate. The AlaRS^N71Y (B), AlaRS^G102R (D), AlaRS^R326W (F), and AlaRS^E337K (H) proteins (in the presence and absence of Tanshinone I) were incubated with trypsin at different concentrations for three hours before the reactions were quenched, and the products were separated by SDS-PAGE.

AlaRS^R326W = target: T2, AlaRS^R326W (Homo sapiens, UniProt P49588, R326W); test: Proteolytic digestion assay (trypsin, SDS-PAGE); conditions: three hours
T2 construct: made in house; host or cells: E. coli BL21 (DE3), pET-21a
T2 sequence (P49588 1-968 R326W): T1 sequence (P49588 1-968 G102R) with R102G, R326W
Excerpt: as §1, §2

## Cc1coc2c1C(=O)C(=O)c1c-2ccc2c(C)cccc12 [Tanshinone I]
AlaRS^G102R
  Effect on proteolytic fragments / conformation: more prominent bands at 1/100 after Tanshinone I treatment
AlaRS^R326W
  Effect on proteolytic fragments / conformation: distinct proteolytic fragments after Tanshinone I treatment
